Test results: US9284307B2, “Macrocyclic serine protease inhibitors” (Idenix Pharmaceuticals LLC, priority 2009, dated 2016)

How the values were obtained:
[1] = system: HCV genotype 1a H77 strain subgenomic luciferase replicon (H1a-luc) in Huh-7 cells; assay: Luciferase replicon assay, genotype 1a (H1a-luc); type: cell-based; details: Hepatitis C virus, Huh-7, 72 h, read-out: EC50 Against Relpicon 1a
Experimental: The HCV luciferase replicon assay measures the ability of a test compound to inhibit HCV replication in cell culture after 3 days of treatment in a human hepatoma cell line (Huh-7) bearing a HCV replicon containing a luciferase-neomycin phosphotransferase fusion gene. The inhibition of HCV replication was measured by quantification of luciferase protein expression. Briefly, Huh-7 cells containing either the HCV genotype 1a H77 strain or genotype 1b Con1 strain subgenomic luciferase replicon (H1a-luc or Zluc, respectively) were grown in DMEM containing glucose, L-glutamine and sodium pyruvate, 10% fetal bovine serum (FBS), 100 IU/mL penicillin, 100 μg/mL streptomycin, 2 mM GlutaMAX, non-essential amino acids and 0.25 (H1a-luc) or 0.5 (Zluc) mg/mL G418. GlutaMAX was obtained from Invitrogen. Corp.; all other media reagents were obtained from Mediatech, Inc. For dose-response testing, the cells were seeded in 96-well plates at 1×10^4 (H1a-luc) or 7.5×10^3 (Zluc) cells/well in a volume of 50 μL, and incubated at 37° C./5% CO2. […] The assay plates were shaken for 3 minutes at room temperature and luciferase activity for each well was measured with a 1 sec read time on the Victor^3V multilabel counter using a 700 nm cut-off filter (Perkin Elmer). EC50 values were calculated from dose response curves from the resulting best-fit equations determined by Microsoft Excel and XLfit 4.1 software.

HCV NS3-NS4A protease 1a = target: T1, HCV NS3-NS4A protease 1a (Hepatitis C virus genotype 1a, UniProt P27958); assay: HCV protease assay (HiLyte Fluor TR/QXL 610 FRET peptide), genotype 1a; type: biochemical; details: 2-3 nM protease, 60 min at 30° C., read-out: IC50 Against HS3/4A 1a
T1 construct: using 2-3 nM HCV NS3-NS4A protease, which was produced according to the method of Taremi et al; made in house
Experimental: (§1) Measurement of the inhibitory effect of compounds on HCV protease activity was performed using the HiLyte Fluor™ TR/QXL™ 610 FRET peptide from AnaSpec, Inc. (San Jose, Calif.) under conditions developed in-house using 2-3 nM HCV NS3-NS4A protease, which was produced according to the method of Taremi et al. (Protein Science, 1998, 7, 2143-2149). The compounds were tested at a variety of concentrations in assay buffer containing a final DMSO concentration of 5%. Reactions were allowed to proceed for 60 min at 30° C. and fluorescence measurements were recorded with a PerkinElmer Victor^3 V 1420 Multilabel Counter. The IC50 values were determined from the percent inhibition versus concentration data using a sigmoidal non-linear regression analysis based on four parameters with XLfit 4.1 software.

[2] = system: HCV luciferase-bearing wild-type replicon in cured GS4.1 cells; assay: Luciferase replicon transient transfection assay, wild-type replicon; type: cell-based
Experimental: (§2) The luciferase replicon transient transfection assay measures the ability of a test compound to inhibit the replication of a transiently-transfected HCV luciferase-bearing wild-type or mutant replicon in cured human hepatoma cells (cured GS4.1). The mutant replicons bear a specific single-site mutation in NS3 that is known to confer resistance to protease inhibitors currently in development. The inhibition of HCV replication was measured by quantification of luciferase protein expression. This assay has been validated using a panel of replicons bearing known protease inhibitor resistance mutations and their respective reference compounds. Briefly, subconfluent cured GS4.1 cells in OptiBuffer (ThermoElectron Corp.) were electroporated with 40 μg of wild-type or mutant luciferase-bearing HCV replicon RNA. The cells were then seeded in 96-well opaque white plates at 2.4×10^4 cells/well in 150 μL/well and incubated for 4 hours at 37° C./5% CO2. […] The plates were agitated on a rotating platform at room temperature for 3 minutes and read in a Victor^3V microplate reader (Perkin-Elmer) using a 700 nm cut-off filter with a 1 second read time. EC50 values were calculated from dose response curves from the resulting best-fit equations determined by Microsoft Excel and XLfit 4.1 software.

[3] = system: HCV luciferase-bearing mutant replicon, NS3 R155K, in cured GS4.1 cells; assay: Luciferase replicon transient transfection assay, R155K mutant replicon; type: cell-based
Experimental: as §2

in vitro = type: cell-based; details: human
Experimental: For cytotoxicity evaluation, GS4.1 cells were treated with compounds as described above and cellular viability was monitored using the Cell Titer 96 AQueous One Solution Cell Proliferation Assay (Promega). CC50 values were determined from the % cytotoxicity versus concentration data with Tecan Magellan software as described above.

HCV NS3-NS4A protease 2a = target: T2, HCV NS3-NS4A protease 2a (Hepatitis C virus genotype 2a, UniProt Q99IB8); assay: HCV protease assay (HiLyte Fluor TR/QXL 610 FRET peptide), genotype 2a; type: biochemical; details: 2-3 nM protease, 60 min at 30° C., read-out: IC50 Against HS3/4A 2a
T2 construct: using 2-3 nM HCV NS3-NS4A protease, which was produced according to the method of Taremi et al; made in house
Experimental: as §1

[4] = system: HCV luciferase-bearing mutant replicon, NS3 A156S, in cured GS4.1 cells; assay: Luciferase replicon transient transfection assay, A156S mutant replicon; type: cell-based
Experimental: as §2

Structure (SMILES) | EC50 [1] | IC50 (HCV NS3-NS4A protease 1a) | Fold Change, Wild Type replicon ([2]; EC50 fold change, wild-type replicon) | EC50 ([2]; Hepatitis C virus, 96 h, read-out: EC50(nm), Wild Type replicon) | Fold Change, R155K replicon ([3]; EC50 fold change, R155K replicon) | EC50 ([3]; Hepatitis C virus, 96 h, read-out: EC50(nm), R155K replicon) | CC50 (in vitro) | IC50 (HCV NS3-NS4A protease 2a) | Fold Change, A156S replicon ([4]; EC50 fold change, A156S replicon) | EC50 ([4]; Hepatitis C virus, 96 h, read-out: EC50(nm), A156S replicon)
C#Cc1csc(-c2cc(O[C@H]3CC[C@H]4C(=O)N(C)CCCC/C=C\[C@@H]5C[C@@]5(C(=O)NS(=O)(=O)C5(C)CC5)NC(=O)[C@@H]4C3)c3ccc(OC)c(C)c3n2)n1 [Compound 52, (1aR,3aR,5S,7aR,15aS,Z)-5-(2-(4-ethynylthiazol-2-yl)-7-methoxy-8-methylquinolin-4-yloxy)-9-methyl-N-(1-methylcyclopropylsulfonyl)-3,8-dioxo-1a,2,3,3a,4,5,6,7,7a,8,9,10,11,12,13,15a-hexadecahydro-1H-benzo[c]cyclopropa[g][1,6]diazacyclotetradecine-1a-carboxamide] | < 1000 nM |  |  |  |  |  |  |  |  | 
COc1ccc2c(O[C@H]3CC[C@H]4C(=O)N(C)CCCC/C=C\[C@@H]5C[C@@]5(C(=O)NS(=O)(=O)C5(C)CC5)NC(=O)[C@@H]4C3)cc(-c3nc(C(F)(F)F)cs3)nc2c1C [Compound 51] | < 1000 nM | < 1000 nM | 1 | 0.35 to 1.1 nM | 10-20 | 5 to 15 nM | 10000 to 75000 nM | < 1000 nM | 0.2 to 0.6 | 0.1 to 0.35 nM
